This note sets out measurements from PubChem BioAssay AID276 (DTP/NCI, 2004).

For this assay, the system named is B6C3F1 mice, Lewis lung carcinoma iv, survival T/C. The assay can be described thus: NCI In Vivo Anticancer Drug Screen. Data for tumor model Lewis Lung Carcinoma (intravenous) in B6C3F1 mice. Particulars: endpoint: median survival time, schedule: Q01DX009 (ip), higher = longer survival. The method, then:
The antitumor activity of compounds was measured in mice bearing transplantable tumors. Survival or tumor size were measured and the results are expressed as the measurement made in the treated group (T) divided by the measurement made in the vehicle treated control group (C). The tumor model used in this assay is Lewis Lung Carcinoma (intravenous) in B6C3F1 mice

Where [1] appears, read: dose: 25.0 mg/kg/injection, vehicle: saline.
The mark [2] stands for this setting: dose: 50.0 mg/kg/injection, vehicle: saline.
Setting [3] is: dose: 100.0 mg/kg/injection, vehicle: saline.
Setting [4] is: dose: 50.0 mg/kg/injection, vehicle: Klucel (hydroxypropylcellulose) (HPC).
[5] abbreviates: dose: 100.0 mg/kg/injection, vehicle: Klucel (hydroxypropylcellulose) (HPC).
The mark [6] stands for this setting: dose: 200.0 mg/kg/injection, vehicle: Klucel (hydroxypropylcellulose) (HPC).
Where [7] appears, read: dose: 25.0 mg/kg/injection, vehicle: saline with Tween-80.
[8] abbreviates: dose: 50.0 mg/kg/injection, vehicle: saline with Tween-80.
Setting [9] is: dose: 100.0 mg/kg/injection, vehicle: saline with Tween-80.
[10] abbreviates: dose: 200.0 mg/kg/injection, vehicle: saline with Tween-80.
Setting [11] is: dose: 400.0 mg/kg/injection, vehicle: saline with Tween-80.
Setting [12] is: dose: 1.0 mg/kg/injection, vehicle: saline.
Where [13] appears, read: dose: 0.13 mg/kg/injection, vehicle: saline.

Values joined by “and” are separate entries in the source; they are usually repeats but may differ in a detail not shown here. Equal entries are not always repeated. Inconclusive results and toxic doses are left out.

As for `C=C1C(=O)C2=CC1CCC(=O)C1(C)CCC(OC(C)=O)C(C)(C)C1CC2O` (centres undefined), the T/C reads like this: (dose: 3.75 mg/kg/injection, vehicle: Klucel (hydroxypropylcellulose) (HPC)) 93 % of control; (dose: 7.5 mg/kg/injection, vehicle: Klucel (hydroxypropylcellulose) (HPC)) 110 % of control; (dose: 15.0 mg/kg/injection, vehicle: Klucel (hydroxypropylcellulose) (HPC)) 98 % of control; (dose: 30.0 mg/kg/injection, vehicle: Klucel (hydroxypropylcellulose) (HPC)) 96 % of control; (dose: 60.0 mg/kg/injection, vehicle: Klucel (hydroxypropylcellulose) (HPC)) 100 % of control.
`O=[N+]([O-])c1nccn1CC(O)CO` (centres undefined): the T/C runs as follows: (dose: 12.5 mg/kg/injection, vehicle: saline) 100 % of control; under setting [1], 105 % of control; under setting [2], 104 % of control; under setting [3], 102 % of control; (dose: 200.0 mg/kg/injection, vehicle: saline) 106 % of control; (dose: 400.0 mg/kg/injection, vehicle: saline) 107 % of control.
As for `Oc1c(Cl)cc(C(c2cc(Cl)c(O)c(Cl)c2)C(c2cc(Cl)c(O)c(Cl)c2)c2cc(Cl)c(O)c(Cl)c2)cc1Cl`, the T/C runs as follows: (dose: 12.5 mg/kg/injection, vehicle: Klucel (hydroxypropylcellulose) (HPC)) 98 % of control; (dose: 25.0 mg/kg/injection, vehicle: Klucel (hydroxypropylcellulose) (HPC)) 101 % of control; under setting [4], 104 % of control; under setting [5], 103 % of control; under setting [6], 106 % of control.
With `NC(=S)c1cn(C2OC(CO)C(O)C2O)c2ncnc(N)c12` (centres undefined), the T/C reads like this: (dose: 0.62 mg/kg/injection, vehicle: suspension in saline) 100 % of control; (dose: 1.25 mg/kg/injection, vehicle: suspension in saline) 90 % of control; (dose: 2.5 mg/kg/injection, vehicle: suspension in saline) 99 % of control; (dose: 5.0 mg/kg/injection, vehicle: suspension in saline) 94 % of control.
As for `CN(C=O)C(C(=O)Nc1cccc2c(OC(=O)C(N(C)C=O)(N(C)C=O)N(C)C=O)c(N=Nc3ccc(S(=O)(=O)Nc4nccs4)cc3)cc(N=Nc3ccc(S(=O)(=O)Nc4nccs4)cc3)c12)(N(C)C=O)N(C)C=O` (tested in a mixture with another compound), the T/C reads like this: under setting [7], 103 % of control; under setting [8], 98 % of control; under setting [9], 99 % of control and 104 % of control; under setting [10], 94 % of control and 98 % of control; under setting [11], 103 % of control and 110 % of control; (dose: 800.0 mg/kg/injection, vehicle: saline with Tween-80) 107 % of control.
With `CC(=O)ON(C(C)=O)c1ccc(C(N)=O)cc1`, the T/C by setting is: under setting [7], 102 % of control; under setting [8], 93 % of control; under setting [9], 107 % of control; under setting [10], 99 % of control; under setting [11], 106 % of control.
As to `Cc1cc(NCCN(C(C)C)C(C)C)nc(/N=C(\N)Nc2ccc(Cl)c(C(F)(F)F)c2)n1`, the T/C is 93 % of control and 95 % of control (dose: 1.25 mg/kg/injection, vehicle: Klucel (hydroxypropylcellulose) (HPC)); 95 % of control and 100 % of control (dose: 2.5 mg/kg/injection, vehicle: Klucel (hydroxypropylcellulose) (HPC)); 94 % of control and 96 % of control (dose: 5.0 mg/kg/injection, vehicle: Klucel (hydroxypropylcellulose) (HPC)); 97 % of control and 117 % of control (dose: 10.0 mg/kg/injection, vehicle: Klucel (hydroxypropylcellulose) (HPC)); 94 % of control and 112 % of control (dose: 20.0 mg/kg/injection, vehicle: Klucel (hydroxypropylcellulose) (HPC)).
For the compound `COC(=O)Nc1cn2ccc(Sc3ccccc3)cc2n1`, the T/C runs as follows: under setting [4], 101 % of control; under setting [5], 106 % of control; under setting [6], 101 % of control.
Take `CCCCCCCC(=O)OCC(=O)[C@]1(O)Cc2c(O)c3c(c(O)c2[C@@H](OC2CC(N)C(O)C(C)O2)C1)C(=O)c1c(OC)cccc1C3=O` (some centres undefined): the T/C under setting [12] is 102 % of control; the T/C (dose: 1.0 mg/kg/injection, vehicle: suspension in saline) was 120 % of control; the T/C (dose: 2.0 mg/kg/injection, vehicle: saline) was 124 % of control; the T/C (dose: 2.0 mg/kg/injection, vehicle: suspension in saline) was 112 % of control.
As to `COc1cccc2c1C(=O)c1c(O)c3c(c(O)c1C2=O)C[C@@](O)(C(=O)CO)C[C@@H]3OC1CC(N)C(O)C(C)O1` (some centres undefined), the T/C runs as follows: (dose: 0.12 mg/kg/injection, vehicle: saline) 94 % of control and 96 % of control and 98 % of control; under setting [13], 102 % of control; (dose: 0.5 mg/kg/injection, vehicle: water) 95 % of control and 100 % of control; (dose: 1.0 mg/kg/injection, vehicle: water) 88 % of control; (dose: 2.0 mg/kg/injection, vehicle: water) 90 % of control and 123 % of control; (dose: 4.0 mg/kg/injection, vehicle: water) 112 % of control.
In the case of `CCN(CC)CCOCCO`, the T/C was 96 % of control (dose: 12.0 mg/kg/injection, vehicle: saline); 99 % of control under setting [1]; 99 % of control under setting [2]; 101 % of control under setting [3].
Take `COCCCNC1=C(C#N)C(=O)NC(c2cccc([N+](=O)[O-])c2)S1` (centres undefined): the T/C by setting is: (dose: 12.5 mg/kg/injection, vehicle: saline with Tween-80) 111 % of control; under setting [7], 93 % of control; under setting [8], 96 % of control; under setting [9], 104 % of control; under setting [10], 93 % of control; under setting [11], 98 % of control.
Regarding `CNC(=O)O/N=C(\CN=[N+]=[N-])C(C)(C)C`, the T/C runs as follows: under setting [13], 102 % of control; (dose: 0.25 mg/kg/injection, vehicle: saline) 102 % of control; (dose: 0.5 mg/kg/injection, vehicle: saline) 106 % of control; under setting [12], 105 % of control.
As for `COc1cccc2c1C(=O)c1c(O)c3c(c(O)c1C2=O)CC(O)(/C(C)=N/NC(=O)CCC(=O)N/N=C(\C)C1(O)Cc2c(O)c4c(c(O)c2C(OC2CC(N)C(O)C(C)O2)C1)C(=O)c1c(OC)cccc1C4=O)CC3OC1CC(N)C(O)C(C)O1` (centres undefined), the T/C by setting is: (dose: 0.75 mg/kg/injection, vehicle: water) 99 % of control and 100 % of control; (dose: 1.5 mg/kg/injection, vehicle: water) 103 % of control and 105 % of control; (dose: 3.0 mg/kg/injection, vehicle: water) 101 % of control; (dose: 6.0 mg/kg/injection, vehicle: water) 105 % of control and 260 % of control; (dose: 12.0 mg/kg/injection, vehicle: water) 101 % of control and 113 % of control; (dose: 24.0 mg/kg/injection, vehicle: water) 104 % of control.
